Tests used:
[1] = system: SAD transgenic mice; assay: Vaso-occlusive crises in mice: renal artery blood flow velocity by Echo-Doppler, cardiac output, renal histology; assay type: in vivo, mouse; details: for reduction in the mean blood flow velocity of the right renal arteries: TSP1 1 mg/kg intravenous
Experimental: We characterized the induction of VOC in SAD transgenic mice (18, 19) according to our previously published method, in response to the intravenous administration of TSP1 (1 mg/kg), TSP1-derived peptides 4N1-1 or 4N1-2, or purified erythrocyte MP. Briefly, mice were anesthetized with isoflurane and monitored to prevent any cardiorespiratory depression. Mice were shaved and placed in the decubitus position on a heating blanket (38° C.). We used a Vivid 7 echograph (GE Medical Systems®, Horten, Norway) equipped with a 12-MHz linear transducer (12 L). The ultrasound probe was placed on the left side of the abdomen for examination of renal arteries, or in left lateral decubitus for cardiac output acquisition with transducer on the chest. Data were transferred on-line to an EchoPAC ultrasound image analysis workstation (GE Medical Systems®). Two-Dimensional ultrasound imaging of the abdomen in left-sided longitudinal B-mode allowed kidney width and height measurements. Color-coded blood flow detection by Doppler enabled renal arteries to be localized. A pulsed Doppler spectrum was recorded and peak systolic, end-diastolic and time-average mean BFV were measured in the renal artery, with Doppler beam angle correction. To calculate cardiac output, spatial flow profiles were analyzed in parasternal long-axis B-mode images of the pulmonary artery and BFV were measured as above. The following formula was applied: CO=[(V^mean·60)·(π·(Dpa/2^2)], where CO is the cardiac output in ml/minute, V^mean is the mean time-averaged BFV in cm/s and Dpa is the pulmonary artery diameter in cm. Kidney sizes and BFV were determined by the same investigator, as means of 5 to 8 measurements. Repeatability for cardiac output measurements was verified. We controlled and confirmed that kidney size was similar between SAD and wild type mice. After sacrifice, kidneys were dissected, dehydrated, mounted in paraffin, sectioned and stained by Masson trichrome. Vascular congestion was observed by phase-contrast microscopy, as large erythrocyte aggregates occluding kidney capillaries and larger vessels. In some experiments, TSP1 (1 mg/kg) or control BSA (1 mg/kg) were injected. After 5 minutes, mice were terminally anesthetized by pentobarbital overdose. Whole blood was collected through cardiac puncture, centrifuged (400 g, 15 minutes) to eliminate erythrocytes and leukocytes, and double centrifuged (12500 g, 5 minutes) to eliminate platelets with minimal activation. Supernatants were considered platelet-free plasma (PFP). Circulating MP were quantified by FACS.
We evaluated the concept that TSP1 influences VOC during SCD in vivo. We used SAD transgenic mice that express a mutated human hemoglobin β-chain known to cause sickle cell formation and sensitivity to VOC (18, 19).

[2] = system: wild type mice; assay: Vaso-occlusive crises in mice: renal artery blood flow velocity by Echo-Doppler (wild type); assay type: in vivo, mouse
Experimental: (§1) We characterized the induction of VOC in SAD transgenic mice (18, 19) according to our previously published method, in response to the intravenous administration of TSP1 (1 mg/kg), TSP1-derived peptides 4N1-1 or 4N1-2, or purified erythrocyte MP. Briefly, mice were anesthetized with isoflurane and monitored to prevent any cardiorespiratory depression. Mice were shaved and placed in the decubitus position on a heating blanket (38° C.). We used a Vivid 7 echograph (GE Medical Systems®, Horten, Norway) equipped with a 12-MHz linear transducer (12 L). The ultrasound probe was placed on the left side of the abdomen for examination of renal arteries, or in left lateral decubitus for cardiac output acquisition with transducer on the chest. Data were transferred on-line to an EchoPAC ultrasound image analysis workstation (GE Medical Systems®). Two-Dimensional ultrasound imaging of the abdomen in left-sided longitudinal B-mode allowed kidney width and height measurements. […] A pulsed Doppler spectrum was recorded and peak systolic, end-diastolic and time-average mean BFV were measured in the renal artery, with Doppler beam angle correction. To calculate cardiac output, spatial flow profiles were analyzed in parasternal long-axis B-mode images of the pulmonary artery and BFV were measured as above. […] Circulating MP were quantified by FACS.

[3] = system: wild type mice; assay: Circulating PS+ MP in platelet-free plasma by FACS (annexin-V labeling), wild type mice; assay type: in vivo, mouse; details: TSP1 injection (1 mg/kg), within 5 minutes, vs control
Experimental: as §1, with “L).” for “L). The ultrasound probe was placed on the left side of the abdomen for examination of renal arteries, or in left lateral decubitus for cardiac output acquisition with transducer on the chest. Data were transferred on-line to an EchoPAC ultrasound image analysis workstation (GE Medical Systems®). Two-Dimensional ultrasound imaging of the abdomen in left-sided longitudinal B-mode allowed kidney width and height measurements.”
(§2) Netherlands) in the absence or presence of TSP1 (25 μg/ml), or TSP1-derived peptides 4N1-1 or 4N1-2 (25 μM). […] Erythrocytes were immediately separated and supernatant PS^+ MP quantified by FACS. […] MP concentrations were determined as previously described (20). […] MP were analyzed on a Coulter EPICS XL flow cytometer (Beckman Coulter). […] MP-size events were analyzed in FL/FSC fluorescence dot plots to determine annexin-V labeling. […]

[4] = system: SAD mice; assay: Circulating PS+ MP in platelet-free plasma by FACS (annexin-V labeling), SAD mice; assay type: in vivo, mouse; details: SAD mice, TSP1 injection (1 mg/kg), within 5 minutes, vs control SAD
Experimental: as §1, with “L).” for “L). The ultrasound probe was placed on the left side of the abdomen for examination of renal arteries, or in left lateral decubitus for cardiac output acquisition with transducer on the chest. Data were transferred on-line to an EchoPAC ultrasound image analysis workstation (GE Medical Systems®). Two-Dimensional ultrasound imaging of the abdomen in left-sided longitudinal B-mode allowed kidney width and height measurements.”
as §2

[5] = system: wild type mouse erythrocytes; assay: Echinocyte conversion and MP shedding by isolated erythrocytes (LORCA ektacytometer, microscopy, FACS), wild type; assay type: cell-based; details: under shear, TSP1 (25 μg/ml), within minutes
Experimental: (§3) Mouse blood was obtained through retro-orbital sinus puncture, mixed with anti-coagulant heparin buffer (5 UI/ml), and collected on citrated tubes. Blood diluted 1:1 with PBS (Gibco-Life Sciences) was placed onto histopaque-1083 (Sigma) density gradients for centrifugation (600 g, 25 minutes). Erythrocyte pellets were resuspended, washed in DMEM and stored for up to 4 hours at room temperature. Erythrocyte surface CD47 expression was assessed by FACS. Fresh RBC were washed and blocked with PBS-BSA 5% for 30 min and immunoreacted with mouse-specific fluoroisothiocyanate (FITC)-coupled anti-CD47 monoclonal antibody (clone mIAP301; BD Biosciences, Le Pont de Claix, France), or matched irrelevant IgG2aκ isotype for 45 min in 2% PBS-BSA. Erythrocytes were washed in PBS-BSA 2% prior to FACS analysis. Erythrocyte phenotypes were analyzed by […] electronic microscopy. Briefly, mouse erythrocytes were fixed with glutaraldehyde 1% and paraformaldehyde 4%, dehydrated and embedded in Epon™ epoxy resin. Sections contrasted with uranyl acetate and lead citrate were examined with a JEOL JEM 1010 microscope. Average apparent spicule number was determined by direct counting in 80 to 120 cells per condition.
(§4) To trigger MP shedding, erythrocyte were suspended in polyvinylpyrrolidone (31 mPa.s) and placed in a rotating type LORCA ektacytometer (R&R Mechatronics, Hoorn, The
(§5) Netherlands) in the absence or presence of TSP1 (25 μg/ml), or TSP1-derived peptides 4N1-1 or 4N1-2 (25 μM). Shear rate was applied according to the builder's program (1500 s^−1; 2.5 minutes). Erythrocytes were immediately separated and supernatant PS^+ MP quantified by FACS. Concentrated MP stocks were generated from 10 to 20 ml of supernatant from erythrocytes suspended in RPMI-1640 (4.10^6/ml) and treated with 4N1-1. Suspensions were centrifuged at 400 g for 15 min to discard cells, and ultracentrifuged at 20500 g for 45 min to pellet MP, which were resuspended in filtered (0.2 μm) DMEM and stored at −80° C. MP concentrations were determined as previously described (20). Briefly, MP were labeled with 2 μl FITC-conjugated annexin-V (Roche Diagnostics, France) diluted in 100 μl reaction buffer with 5 mM CaCl2. CaCl2 was omitted in negative controls. MP were analyzed on a Coulter EPICS XL flow cytometer (Beckman Coulter). MP were identified in forward light scatter (FSc) and side-angle light scatter (SSc) intensity dot plots set at logarithmic gain, as events of 0.1-1 μm in diameter. MP-size events were analyzed in FL/FSC fluorescence dot plots to determine annexin-V labeling. MP concentration was determined with respect to calibrated fluorescent microbeads (Flowcount). To determine erythrocyte origin, MP were double labeled with rat PE-Cy7-coupled mouse-specific anti-Ter119 antibody (Biolegend via Ozyme, France), or matched irrelevant IgG2bκ isotype.

[6] = system: SAD mouse erythrocytes; assay: Echinocyte conversion and MP shedding by isolated erythrocytes (LORCA ektacytometer, microscopy, FACS), SAD; assay type: cell-based
Experimental: as §3, §4, §5

[7] = after intravenous injection (TSP1 1 mg/kg; MP 300.10^3 MP/mouse)
[8] = TSP1 and shear stress, vs control (discussion)

## TSP1: Human recombinant TSP1 produced by EMP-Genetech (Germany)
[1]; after 5 minutes
  reduction in the mean blood flow velocity of the right renal arteries: 35%
[1]; rapid
  reduction in the mean blood flow velocity of the right renal arteries: 20%
[1]; TSP1 injection, within minutes
  drop in renal perfusion: 30%
[1]; [7]
  diastolic and mean blood flow velocities: dramatically decreased
  renal histology after Masson trichrome stain: red blood cells aggregates and vascular congestion
  systolic blood flow velocity: unchanged
[2]; TSP1 1 mg/kg intravenous
  systolic, diastolic and mean blood flow velocities: remained unchanged
[2]; TSP1 injection
  renal perfusion: did not modify renal perfusion
[3]
  raise in plasma PS+ MP: 3 fold
[4]
  increase in circulating PS+ MP: 3 fold
[5]
  proportion of wild type echinocytes reached: 30%
  raise in the proportion of wild type echinocytes: over 10 fold
[6]; SAD erythrocytes, TSP1 or peptide
  effect on sickle cells: did not affect sickle cells
[6]; [8]
  MP shedding by SAD erythrocytes: doubled
  proportion of SAD echinocytes: doubled
[6]; under shear, TSP1 (25 μg/ml) or peptide (25 μM), vs control
  increase in SAD echinocytes: 50%

— patent publication US10139420B2, “Methods for treating vaso-occlusive crisis using non-modified annexin V” (ISNERM (Institut National de la Sante et de la Recherche …, priority 2011, dated 2018)
